Values quoted from earlier work, collected in paper PMC12308805, “Ultrahigh-Throughput Virtual Screening Strategies against PPI Targets: A Case Study of STAT Inhibitors” (Journal of Chemical Information and Modeling, 2025).
Square brackets hold non-standard residues; d marks the D form. Peptide text beside a SMILES is read from it. * marks the point of attachment. pY = N[C@@H](Cc1ccc(OP(=O)(O)O)cc1)C(=O)O; Propionyl = CCC(=O)*

test system: STAT3; conditions: cited from earlier work

Structure (SMILES) | Type (known STAT3 active)
CCC(=O)N[C@@H](Cc1ccc(OP(=O)(O)O)cc1)C(=O)N[C@@H](CC(C)C)C(=O)N1CCC[C@H]1C(=O)N[C@@H](CCC(N)=O)C(=O)N[C@H](C(N)=O)[C@@H](C)O [CHEMBL197580] (Propionyl-[pY]LPQT-NH2) | Active

same assay, conditions: sheet 6QHD_actives_decoys, retrospective screening set for STAT3 SH2 domain (PDB 6QHD); decoys are presumed inactives, not tested; ref DUD-E; cited from earlier work

Structure (SMILES) | Type
CCOc1ccc(S(=O)(=O)Nc2ccc(C(=O)N/N=C(\C)c3ccc(OC)cc3O)cc2)cc1 [Decoy858] | Inactive (Decoy)
CCCOc1ccc([C@H]2C(C(=O)c3c(C)nc4ccccn34)=C(O)C(=O)N2CCN(CC)CC)cc1OCC [Decoy760] | Inactive (Decoy)
Cc1c(C#N)c(NC(=O)CSc2nnc(COc3ccccc3F)n2N)n(C[C@@H]2CCCO2)c1C [Decoy954] | Inactive (Decoy)
N[C@@H](CCCC[n+]1cc(CC[C@H](N)C(=O)O)cc(CC[C@H](N)C(=O)O)c1CCC[C@H](N)C(=O)O)C(=O)[O-] [Decoy841] | Inactive (Decoy)
CC(=O)Nc1ccc(S(=O)(=O)Nc2nnc(CCNS(=O)(=O)c3ccc(C)cc3)s2)cc1 [Decoy958] | Inactive (Decoy)
CCN(CC)S(=O)(=O)c1ccc(NC(=O)CCCCCCCC(=O)Nc2ccc(S(=O)(=O)N(CC)CC)cc2)cc1 [Decoy744] | Inactive (Decoy)
CCn1cc([C@@H](C)NC(=S)Nc2ccc(S(=O)(=O)Nc3ncccn3)cc2)c(C)n1 [Decoy919] | Inactive (Decoy)
Cc1nn(-c2cc(Cl)c(S(=O)(=O)O)cc2Cl)c(O)c1/N=N/c1cccc(S(=O)(=O)O)c1 [Decoy763] | Inactive (Decoy)

same assay, conditions: sheet 6QHD_actives_decoys; known STAT3 actives of the retrospective screening set; ref ChEMBL / literature; cited from earlier work

Structure (SMILES) | Type (known STAT3 active)
CC(C)C[C@H](NC(=O)/C=C/c1ccc(OP(=O)(O)O)cc1)C(=O)N1C[C@H]2C[C@H]2[C@H]1C(=O)N[C@@H](CCC(N)=O)[C@@H](C)O [CHEMBL583725] | Active

same assay, conditions: sheet 6QHD_actives_decoys; retrospective screening set for STAT3 SH2 domain (PDB 6QHD); […]; ref DUD-E; cited from earlier work

Structure (SMILES) | Type
COc1ccccc1[C@H](O)CNC(=O)c1cc(NS(=O)(=O)c2cccc([N+](=O)[O-])c2)ccc1O [Decoy566] | Inactive (Decoy)

same assay, conditions: sheet 6QHD_actives_decoys; retrospective screening set for STAT3 SH2 domain (PDB 6QHD); decoys generated with DUD-E and presumed inactive, not tested; ref DUD-E; cited from earlier work

Structure (SMILES) | Type
CCN(CC)c1ccc(/C=N/NC(=O)CSc2nnc(-c3cc(OC)c(OC)c(OC)c3)n2-c2ccccc2)c(O)c1 [Decoy703] | Inactive (Decoy)
CCOC(=O)c1c(NC(=O)c2ccc([N+](=O)[O-])cc2)sc2c(OCCN(CC)CC)c(Br)ccc12 [Decoy671] | Inactive (Decoy)
O=C(NCCCCCCNC(=O)OCCN[C@H]1CCS(=O)(=O)C1)OCCN[C@H]1CCS(=O)(=O)C1 [Decoy454] | Inactive (Decoy)
CCOC(=O)c1sc(Nc2ccc(NC(=O)C[C@@H](NCCOC)C(=O)O)cc2)nc1C [Decoy654] | Inactive (Decoy)
CC(=O)O[C@H]1[C@@H](O)[C@H](CO)O[C@H](O[C@@H](C/N=C/c2c(O)ccc3ccccc23)[C@@H](CO)O[C@H](O)C/N=C/c2c(O)ccc3ccccc23)[C@@H]1O [Decoy442] | Inactive (Decoy)
C[C@@H]1O[C@H](O[C@@H]2CC[C@]3(C)[C@H](CC[C@@H]4[C@@H]3CC[C@@]3(C)[C@@H](C5=CC(=O)OC5)CC[C@]43O)C2)C[C@H](O)[C@@H]1O[C@@H]1C[C@H](O)[C@H](O[C@H]2C[C@@H](O)[C@H](O)[C@@H](C)O2)[C@H](C)O1 [Decoy470] | Inactive (Decoy)
COc1ccc(NC(=O)C2=C(C)NC(SCC(=O)Nc3cccc(OC)c3)=C(C#N)[C@@H]2c2ccco2)cc1 [Decoy357] | Inactive (Decoy)
CO[C@@H]1O[C@@H]2CO[C@@H](c3ccccc3)O[C@H]2[C@H](O[C@@H]2O[C@H](COC(C)=O)[C@H](OC(C)=O)[C@H](OC(C)=O)[C@H]2OC(C)=O)[C@H]1NC(C)=O [Decoy547] | Inactive (Decoy)
COc1cc(/C=N/Nc2nnc(SCC(=O)NCCc3ccc(Cl)cc3)n2N)cc(OC)c1OC [Decoy559] | Inactive (Decoy)
COC(=O)[C@@H]1[C@H](O)[C@H](C)[C@H](O)O[C@@H]1[C@H](C)[C@H](O)[C@@H](C)/C=C\C=C(/C)C(=O)Nc1c(C)c(OC(C)=O)c2c(c1O)C(=O)C(C)=C1OCOC(/C(C)=C/C(C)=O)=C12 [Decoy345] | Inactive (Decoy)
